According to US20150324546A1, “METHOD FOR PREDICTING DRUG-TARGET INTERACTIONS AND USES FOR DRUG REPOSITIONING” (GEORGETOWN UNIVERSITY, priority 2012, published 2015):
Where two headings read alike, the source gives them in different places. One block for each molecule: values may come before it.

Key:
[1] = tested on: Human umbilical vein endothelial cells (HUVEC); assay: HUVEC angiogenesis (network formation on Matrigel) assay; format: cell-based; settings: 24 h incubation, 1-100 μM, read-out: Inhibition of HUVEC network formation IC50
Procedure: Mebendazole was dissolved in 50 μl of DMSO and diluted with endothelial growth medium (EGM) to a final concentration of 1 mM. The highest concentration of DMSO is 0.1%. Human umbilical vein endothelial cells (HUVEC) were purchased from Cambrex Co. (East Rutherford, N.J., USA) and maintained in endothelial growth medium (EGM) supplemented with 2% FBS, 0.1% EGF, 0.1% hydrocortisone, 0.1% GA-1000, and 0.4% BBE. Morphogenesis assay on Matrigel was performed according to the manufacturer's instructions (Chemicon International). The ECMatrix™ kit consists of laminin, collagen type IV, heparan sulfate, proteoglycans, entactin, and nidogen. It also contains various growth factors (TGF-beta, FGF) and proteolytic enzymes (plasminogen, tPA, and MMPs) that are normally produced in EHS tumors. The incubation condition was optimized for maximal tube-formation as follows: 50 μl of EC Matrix™ was suitably diluted in a ratio 9:1 with 10× diluent buffer and used to coat the 96-well plate. The coated plates were incubated at 37° C. for 1 hr to allow the Matrix solution to solidify. HUVECs were cultured for 24 h in EGM with 2% FBS, trypsinized and re-suspended in the growth medium. […]
The efficiency of Mebendazole to inhibit the VEGFR2 kinase was measured by monitoring the ability of HUVECs to form networks.

VEGFR2 = VEGFR2 (Homo sapiens, UniProt P35968); settings: read-out: VEGFR2 kinase activity IC50; 450 uM ATP, 60 minutes at room temperature, duplicate wells
Sequence of VEGFR2 (P35968 20-1356, species assumed): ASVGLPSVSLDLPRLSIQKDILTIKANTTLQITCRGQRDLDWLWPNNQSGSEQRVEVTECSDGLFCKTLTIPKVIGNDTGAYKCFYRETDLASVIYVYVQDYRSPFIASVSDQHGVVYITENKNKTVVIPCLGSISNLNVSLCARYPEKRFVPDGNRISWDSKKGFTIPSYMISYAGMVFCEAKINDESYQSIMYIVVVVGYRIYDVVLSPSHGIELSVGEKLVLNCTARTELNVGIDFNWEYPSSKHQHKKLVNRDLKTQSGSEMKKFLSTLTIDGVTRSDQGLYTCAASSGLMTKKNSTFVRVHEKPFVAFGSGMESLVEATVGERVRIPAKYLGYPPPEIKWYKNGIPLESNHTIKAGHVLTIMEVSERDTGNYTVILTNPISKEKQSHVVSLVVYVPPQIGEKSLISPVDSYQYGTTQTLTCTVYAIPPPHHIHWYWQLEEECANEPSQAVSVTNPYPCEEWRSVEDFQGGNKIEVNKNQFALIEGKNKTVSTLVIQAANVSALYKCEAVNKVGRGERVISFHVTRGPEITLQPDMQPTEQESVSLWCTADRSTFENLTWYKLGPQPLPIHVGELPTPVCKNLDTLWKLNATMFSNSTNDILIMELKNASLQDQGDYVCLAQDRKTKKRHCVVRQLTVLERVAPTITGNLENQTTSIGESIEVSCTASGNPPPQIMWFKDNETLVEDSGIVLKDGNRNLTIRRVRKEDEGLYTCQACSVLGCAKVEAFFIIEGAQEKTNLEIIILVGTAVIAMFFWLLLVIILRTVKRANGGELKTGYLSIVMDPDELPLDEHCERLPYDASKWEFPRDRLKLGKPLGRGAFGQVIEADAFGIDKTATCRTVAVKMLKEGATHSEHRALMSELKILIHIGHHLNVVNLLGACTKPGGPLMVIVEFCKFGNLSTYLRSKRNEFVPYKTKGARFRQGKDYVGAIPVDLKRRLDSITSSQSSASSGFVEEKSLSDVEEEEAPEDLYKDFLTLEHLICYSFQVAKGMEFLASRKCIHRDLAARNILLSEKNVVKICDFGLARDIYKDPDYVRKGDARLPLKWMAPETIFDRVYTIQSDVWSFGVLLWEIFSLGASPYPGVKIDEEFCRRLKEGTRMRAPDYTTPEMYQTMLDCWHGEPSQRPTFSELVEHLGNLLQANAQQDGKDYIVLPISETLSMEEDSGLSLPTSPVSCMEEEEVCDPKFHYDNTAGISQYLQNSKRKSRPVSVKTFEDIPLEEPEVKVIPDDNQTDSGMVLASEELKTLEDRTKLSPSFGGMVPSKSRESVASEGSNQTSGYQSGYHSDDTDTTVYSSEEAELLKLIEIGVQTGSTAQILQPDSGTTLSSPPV
Procedure: The VEGFR2 kinase assay was performed by using the Caliper LabChip 3000 and a 12-sipper LabChip. […] The off-chip incubation mobility-shift kinase assay uses a microfluidic chip to measure the conversion of a fluorescent peptide substrate to a phosphorylated product. The reaction mixture, from a microtiter well plate, is introduced through a capillary sipper onto the chip, where the nonphosphorylated substrate and phosphorylated product are separated by electrophoresis and detected via laser-induced fluorescence.
The assay reaction is: Fluorescein-peptide+ATP→fluorescein-phosphopeptide+ADP, which is measured by charge separation of phosphorylated product and unphosphorylated substrate. […] Following addition of ATP, samples were incubated for 60 minutes at room temperature and the reaction was terminated by the addition of stop buffer containing 100 mM HEPES (pH 7.5), 7 mM EDTA, 0.015% Brij-35, 4% DMSO. Phosphorylated product and unphosphorylated substrate were separated by charge using electrophoretic mobility shift. The product formed is compared to control wells to determine inhibition or enhancement of enzyme activity.
IC50 curves were generated using GraphPad 5 and a standard 4-parameter non-linear regression model (log [inhibitor] vs response−variable slope). Data points correspond to the averages of duplicate wells, and error bars represent the mean±replicate % activity.

[2] = tested on: MDA-MB-231 invasive breast cancer cell line; assay: Growth inhibition of MDA-MB-231 cells, MTS assay; format: cell-based; settings: Homo sapiens, 48 hrs exposure
Procedure: MDA-MB-231 cells were seeded at 4000 cells/well in a 96 well plate. […] Three wells per concentration were treated 24 h post seeding, and the MTS assay was performed 48 h post treatment. The CellTiter96 Aqueous Non-Radioactive Cell Proliferation Assay kit (Promega) was used according to the manufacturer's recommendations. The absorbance values were measured at 490 nm and viable cells presented as a percentage of the absorbance of DMSO-only treated cells. IC50 and R^2 values were calculated with the Graphpad Prism software.

[3] = rats; cited from earlier work
[4] = humans; cited from earlier work
angiogenesis = settings: previously demonstrated; cited from earlier work

IC50 (VEGFR2): 3.6 µM
Structure (SMILES): COC(=O)Nc1nc2ccc(C(=O)c3ccccc3)cc2[nH]1 [Mebendazole]
IC50 [1]: 8.8 µM

Structure (SMILES): Cc1ccc(-c2cc(C(F)(F)F)nn2-c2ccc(S(N)(=O)=O)cc2)cc1 [celecoxib]
IC50 [2]: 40 µM
Circulating levels [3]: 1 to 10 µM
Circulating levels [4]: 1 to 10 µM

IC50 [2]: 36 µM
Structure (SMILES): Cc1ccc(C)c(-c2cc(C(F)(F)F)nn2-c2ccc(S(N)(=O)=O)cc2)c1 [dimethyl celecoxib]

Structure (SMILES): CCCSc1ccc2nc(NC(=O)OC)[nH]c2c1 [Albendazole]
Inhibition of angiogenesis (angiogenesis): inhibit angiogenesis
